The values that follow come from PubChem BioAssay (NCI).

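Each compound was tested at five concentrations against cells in 96-well plates for 48 hours. The concentration for 50% growth inhibition is given as GI50. TGI denotes the concentration required for complete inhibition of growth.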 Bounds are passed on as bounds.

Common to all, as to assay: DTP human tumour cell line panel, 48 h
The subject of test [1] is SK-MEL-5 melanoma.
Test [2] has as its system NCI-H226 lung.
Test [3] deals with HL-60(TB) leukemia.
The test system of test [4] is SNB-75 CNS.
In test [5] the test system is NCI/ADR-RES ovarian.
The subject of test [6] is OVCAR-8 ovarian.
Test [7] concerns DU-145 prostate.
In test [8] the test system is HCT-15 colon.
Test [9] has as its system UACC-62 melanoma.
Test [10] has as its system MOLT-4 leukemia.

The term GI50 denotes the concentration at which growth is held to half of that of the control. The TGI is the concentration giving total growth inhibition. Read a high TGI as less potent growth arrest. In the case of `COc1c(C(C)=O)c(OCCCCOc2c(C(C)=O)c(OC)c3ccoc3c2OC)c(OC)c2occc12`, the GI50 was 1.52 µM in [1]; 1.85 µM in [3]; 8.72 µM in test [4]; 1.61 µM in [5]; 2.27 µM in [6]; above 100 µM in [7]. Moreover, the GI50 in test [8] was 3.88 µM; in test [9] it was 2.13 µM; in test [10], 1.23 µM. Further, the TGI in [1] is 3.4 µM; in test [2], above 100 µM; in [3], 4.02 µM; in test [4], above 100 µM; in test [5] it was 4.92 µM; in test [6] it was 7.85 µM. The TGI in [7] was above 100 µM; in test [8] it was above 100 µM; in test [9] it was above 100 µM; in test [10], 3.1 µM.
In the case of `COc1cc(/C=C/c2ccc(C)cc2)cc(OC)c1OC`, the TGI in test [1] was found to be 13.3 µM; in [2], 11.4 µM; in test [3] it was 21.9 µM; in [4] it was 8.05 µM; in test [5], 4.9 µM; in test [6], 15.9 µM. For the same compound, the TGI in test [7] was found to be 13.7 µM; in [8], 20.1 µM; in [9], 15.6 µM; in test [10] it was 25.6 µM.
In the case of `COc1ccc(-c2c(C)c(C(=O)O)nc(-c3ccc4c(O)c(OC)c5c(c4n3)=NC(C)(C)N=5)c2N)c(O)c1OC`, the concentration for total growth inhibition (TGI) in test [1] came out at 25.4 µM; in test [2], 63.1 µM; in test [3], 37.1 µM; in [4], 11.4 µM; in test [5], 58 µM; in test [6], 21.5 µM. The TGI in [7] was above 100 µM; in test [8], above 100 µM; in [9], 62.2 µM; in [10] it was 29.7 µM.
For `CCCCCCCCCCCC1=NC(C)(C)CN1C(C)(C)CO`, the GI50 in [1] is 1.79 µM; in test [2] it was 5.16 µM; in [3], 1.77 µM; in test [4], 2.3 µM; in [5], 2.41 µM; in test [6] it was 3.33 µM. For the same compound, the GI50 in [7] is 3.12 µM; in [8], 2.15 µM; in test [9], 1.86 µM; in [10], 2.79 µM. The TGI was determined as 3.3 µM in test [1]; 20.5 µM in test [2]; 4.66 µM in [3]; 7.12 µM in test [4]; 5.76 µM in [5]; 13.4 µM in [6]. Moreover, the TGI in test [7] was 15.3 µM; in test [8] it was 4.74 µM; in test [9] it was 3.54 µM; in [10], 8.66 µM.
Turning to `CN1C(=O)c2ccc3ccccc3c2C1=O`, the TGI in test [1], in test [2], in [3], in [4], in test [5] and in [6] was above 100 µM throughout. The TGI in [7], in test [8], in test [9] and in test [10] was above 100 µM each time.
Turning to `C/C(=C\c1ccn(-c2ccccc2N)n1)[C@@H]1C[C@@H]2O[C@]2(C)CCC[C@H](C)[C@H](O)[C@@H](C)C(=O)C(C)(C)[C@@H](O)CC(=O)O1`, the GI50 is 0.0286 µM in test [1]; 7.14 µM in test [2]; 0.0329 µM in [3]; 0.00907 µM in [4]; 0.154 µM in test [5]; 0.0617 µM in test [6]. Also, the GI50 in [7] was 0.0564 µM; in [8], 0.0393 µM; in [9], 0.111 µM; in test [10], 0.0341 µM. The TGI in [1] was above 50 µM; in test [2] it was above 50 µM; in [3], 0.228 µM; in test [4], 0.186 µM; in test [5], 7.21 µM; in test [6], above 50 µM. For the same compound, the total growth inhibition concentration (TGI) in test [7] was 0.402 µM; in test [8] it was above 50 µM; in test [9] it was above 50 µM; in test [10], above 42.2 µM.
`COc1ccc(/C=C(/c2ccccc2)[N+](=O)[O-])c(OC)c1`: the GI50 is 1.79 µM in test [1]; 1.95 µM in test [2]; 1.15 µM in test [3]; 0.363 µM in test [4]; 1.72 µM in test [5]; 1.66 µM in test [6]. The GI50 in test [7] was 1.44 µM; in test [8], 0.576 µM; in test [9], 1.22 µM; in [10], 2.14 µM. For the same compound, the TGI was found to be 3.26 µM in test [1]; 4.49 µM in test [2]; 5.25 µM in test [3]; 1.84 µM in [4]; 5.63 µM in test [5]; 5.14 µM in test [6]. The TGI in test [7] came out at 2.92 µM; in [8], 2.13 µM; in test [9] it was 2.7 µM; in [10] it was 6.77 µM.
As to `COc1ccccc1/C=C1\COc2ccc(-c3ccccc3)cc2C1=O`, the GI50 in test [1] was 2.19 µM; in [2], 4.02 µM; in test [3] it was 1.86 µM; in [4], 2.46 µM; in test [5], 3.66 µM; in [6], 3.27 µM. Moreover, the GI50 is 2.53 µM in [7], 2.64 µM in test [8], 4.39 µM in test [9] and 2.16 µM in [10]. The TGI in test [1] was 7.61 µM; in [2], 17.7 µM; in test [3], above 100 µM; in test [4], 6.97 µM; in test [5], 23.6 µM; in test [6], 10.5 µM. Moreover, the TGI in test [7] was 6.63 µM; in test [8] it was 13.1 µM; in [9] it was 45.2 µM; in test [10], above 100 µM.
Regarding `O=C1CCc2c(sc3[nH]c(=S)n(-c4cc(C(F)(F)F)cc(C(F)(F)F)c4)c(=O)c23)C1`, the GI50 in [1] is 0.217 µM; in [2], 0.801 µM; in [3], 0.304 µM; in test [4], 0.328 µM; in test [5] it was 0.351 µM; in [6], 0.457 µM. Further, the GI50 was 0.775 µM in [7], 0.338 µM in test [8], 0.294 µM in test [9] and 0.636 µM in test [10]. Besides, the TGI in test [1] was 0.465 µM; in test [2] it was 7.04 µM; in test [3], 1.21 µM; in test [4], 3.66 µM; in [5], 11.4 µM; in test [6] it was above 37.8 µM. Moreover, the TGI in test [7] was above 40 µM; in test [8], 1.36 µM; in test [9] it was 1.23 µM; in test [10], 9.15 µM.
